We go through 6 substances from publication PMC4489612, “Unravelling the Evolution of the Allatostatin-Type A, KISS and Galanin Peptide-Receptor Gene Families in Bilaterians: Insights from Anopheles Mosquitoes” (PLoS ONE, 2015).

Ends that are not written are not given here.

For test [1], the system named is GPRALS2. Put plainly: iCa^2+ release (Fluo-4 NW) in stable CHO cells expressing GPRALS2. In kind it is cell-based, Anopheles coluzzii. As to conditions: 1 nM to 1 μM (BLAST-2 0.5 μM to 0.005 μM). As for the experimental part:
(§1) The amplified insect receptors included the initiation and termination codons but were not cloned in frame with vector tag proteins. The recombinant constructs were used to transfect mammalian CHO cells that had been maintained in complete Dulbecco’s modified Eagle’s medium (DMEM, Sigma, Spain) containing 4.5 g/L glucose, 110 mg/L sodium pyruvate and L-glutamine and supplemented with 10% sterile foetal bovine serum and 0.1% penicillin: streptomycin antibiotic mix (10.000 U: 10 mg/ml, Sigma) and 250μg/ml sterile filtered amphotericin B solution (1:100 dilution, Sigma, Spain). One day prior to transfection, 2–3 x10^5 cells were seeded into 6 well plates (Sarstedt, Portugal) and transfected using Fugene 6 reagent (1: 6 DNA: Fugene, Roche, Germany) according to the manufacturer’s protocol. The efficiency and success of cell transfection was estimated by performing a simultaneous transfection with a plasmid encoding a fluorescent protein. 72 h after incubation, transformed cells were selected by supplementing medium with 800μg/ml of the antibiotic Geneticin (G418 sulphate, GibcoBRL, USA) and cell recovery was monitored daily and the medium changed until no cell death was observed. Establishment of AST-AR CHO stable cell lines were confirmed by PCR using receptor specific primers.
(§2) GPRALS1 and GPRALS2 stable CHO cell lines were stimulated with Ano_AST-A1 and Ano_AST-A2 peptides, the B. germanica BLAST-2 peptide and rat GAL and sea bass KISS peptides and iCa^2+ release and cAMP production were measured.
(§3) For iCa^2+ release (Relative Fluorescent Units, RFU) a Ca^2+ sensitive fluorescent dye Fluo-4 NW (Molecular Probes, Invitrogen) was used. Approximately 50,000 cells were assayed per well and the variation in fluorescence after addition of increasing peptide concentrations (1 nM to 1 μM, diluted in the assay buffer) was measured every 5s over a total of 2 min and fluorescence was excited using a 485/20 nm filter and captured with a 528/20 nm filter in a Biotek Synergy 4 plate reader (Biotek, USA). Background RFU of transfected cells was measured prior to peptide stimulation. The controls consisted of transfected cells exposed to carbachol (100 nM; Sigma, Spain) and non-transfected CHO cells stimulated with 1 μM of each peptide (negative control).
(§4) Quantitative expression data is presented as mean ± SEM of cDNA from 3 independent experiments analysed in duplicate. Significant changes in transcript expression were assessed using a nonparametric Mann-Whitney two-tailed test. Receptor activation is presented as the mean ± SEM of three independent experiments carried out in triplicate and statistical significance was assessed using a Kruskal-Wallis test with Dunn’s Multiple Comparison Test. […]

The test system of test [2] is GPRALS2. Description: cAMP production (competitive immunoassay) in stable CHO cells expressing GPRALS2. As to conditions: 1 x PBS/1 mM IBMX, 30 min at 37°C, cryptate labelled anti-cAMP antibody, triplicate on three occasions. The format is cell-based, Anopheles coluzzii. How it is done: (§5) The amplified insect receptors included the initiation and termination codons but were not cloned in frame with vector tag proteins. The recombinant constructs were used to transfect mammalian CHO cells that had been maintained in complete Dulbecco’s modified Eagle’s medium (DMEM, Sigma, Spain) containing 4.5 g/L glucose, 110 mg/L sodium pyruvate and L-glutamine and supplemented with 10% sterile foetal bovine serum and 0.1% penicillin: streptomycin antibiotic mix (10.000 U: 10 mg/ml, Sigma) and 250μg/ml sterile filtered amphotericin B solution (1:100 dilution, Sigma, Spain). […] 72 h after incubation, transformed cells were selected by supplementing medium with 800μg/ml of the antibiotic Geneticin (G418 sulphate, GibcoBRL, USA) and cell recovery was monitored daily and the medium changed until no cell death was observed. […]
as §2
(§6) The amount of cAMP produced was determined using a competitive immunoassay with a cryptate labelled anti-cAMP antibody (Cisbio, France) and following the manufactures protocol. […]
(§7) Quantitative expression data is presented as mean ± SEM of cDNA from 3 independent experiments analysed in duplicate. […]

Another test concerns DAR-1. As to conditions: D. melanogaster DAR-1; cited from earlier work.
Test [3] deals with GPRALS1. Description: iCa^2+ release (Fluo-4 NW) in stable CHO cells expressing GPRALS1. The format is cell-based, Anopheles coluzzii. As to conditions: 1 nM to 1 μM (BLAST-2 0.5 μM to 0.005 μM). As for the experimental part: as §1, §2, §3, §4
Test [4] deals with GPRALS1. Description: cAMP production (competitive immunoassay) in stable CHO cells expressing GPRALS1. In kind it is cell-based, Anopheles coluzzii. As to conditions: 1 x PBS/1 mM IBMX, 30 min at 37°C, cryptate labelled anti-cAMP antibody, triplicate on three occasions. As for the experimental part: as §5, §2, §6, §7
The next test relates to DAR-2. Particulars: D. melanogaster DAR-2; cited from earlier work.
Another test has as its system galanin receptors (GALR). Particulars: vertebrates; cited from earlier work. An excerpt: AST-A peptides activate specific G-protein coupled receptors (GPCRs), the insect allatostatin-A receptors (AST-ARs) that are considered orthologues of galanin receptors (GALR) in vertebrates. In vertebrates, GALRs have a close evolutionary relationship with kisspeptin receptors (KISSR) and are activated by galanin (GAL) and spexin (SPX), peptides that are unrelated to insect AST-As. AST-A peptide function is relatively well studied but the receptors have only been isolated in a few insect species and their evolution and function is unresolved. In t ...

For “DRLYSFGL-NH2 [BLAST-2, German cockroach Blattella germanica BLAST-2 peptide (DRLYSFGL-NH2)]”, the “receptor activation, iCa^2+ signalling” value in the test on GPRALS2 [1] and in the test on GPRALS1 [3] was “activated” in each case. In addition, the “intracellular cAMP” value in the test on GPRALS2 [2] and with GPRALS1 [4] was “None of the insect peptides induced increased intracellular cAMP” each time. The “iCa^2+ mobilization” value in the test on DAR-1 and in the test on DAR-2 was “stimulates iCa^2+ mobilization” throughout.
In the case of “FNFNPFGLRF-NH2 [KISS 2–10, vertebrate KISS peptide, sea bass KISS 2–10 ([…]-NH2)]”, the “receptor activation, iCa^2+ signalling” value in the test with GPRALS2 [1] and in the test on GPRALS1 [3] was “failed to activate” in each case.
Regarding “YNLNSFGLRY-NH2 [KISS 1–10, vertebrate KISS peptide, sea bass KISS 1–10 ([…]-NH2)]”, the “receptor activation, iCa^2+ signalling” value in the test on GPRALS2 [1] and with GPRALS1 [3] was “failed to activate” each time.
As for “galanin (GAL): galanin (GAL), peptide activating vertebrate galanin receptors”, the GALR activation result in the test with galanin receptors (GALR) is “activated”.
Turning to “rat 1–29 GAL: 1–29 rat galanin (Sigma-Aldrich, Spain) (GWTLNSAGYLLGPHAIDNHRSFSDKHGLT; ends and bridges not checked; UniProt P10683 33-61, looked up)”, the “receptor activation, iCa^2+ signalling” value in the test with GPRALS2 [1] and in the test with GPRALS1 [3] was “failed to activate” in each case.
As to “spexin (SPX): spexin (SPX), peptide activating vertebrate galanin receptors”, in the test on galanin receptors (GALR), the GALR activation result is recorded as “activated”.
